Results on three molecules are retold here after patent US9585893B2, “Flumazenil complexes, compositions comprising same and uses thereof” (COERULEUS LTD., priority 2011, dated 2017).

Molecules are shown by their SMILES. Where a name gives a salt, the structure may show the parent alone.

The conditions of data set [1]: adult doses; cited from earlier work.
Data set [2] is classed as physicochemical. How it is done: Flumazenil chloride salt consisting of flumazenil and hydrochloride acid was prepared (FIG. 1). […] The concentration of flumazenil in that composition is higher by […] than the concentration of flumazenil in the commercial product Romazicon® (Romazicon® contains 0.01% flumazenil).
Data set [3] relates to hepatic encephalopathy in patients with cirrhosis. Particulars: intravenous infusion of 1 mg flumazenil in 20 ml saline over 3-5 minutes; cited from earlier work.

On to `NC(=O)c1cccnc1` [nicotinamide, 3-pyridinecarboxamide], for which, in data set [1], the “dose considered to have toxic potential” value is on record as over 3 gm/day.

In the case of `CCOC(=O)c1ncn2c1CN(C)C(=O)c1cc(F)ccc1-2` [Flumazenil chloride salt], the “concentration of flumazenil in the composition enabled by increased solubility” value in data set [2] is reported as 0.66%.

Turning to `CCOC(=O)c1ncn2c1CN(C)C(=O)c1cc(F)ccc1-2` [flumazenil, ethyl 8-fluoro-5,6-dihydro-5-methyl-6-oxo-4H-imidazo[1,5-a][1,4]benzodiazepine-3-carboxylate], in data set [3], the “effect on recovery or survival” value was “no significant effect” and the “effect on short-term improvement of hepatic encephalopathy” value is listed as “significant beneficial effect”.
